Activity calls are given as the source filed them.
Columns and labels:
[1] = biological target: Photoreceptor-specific nuclear receptor (Homo sapiens, UniProt Q9Y5X4); type: functional, cell-based;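 note: CHO-S cells with Gal4-NCOR and VP16-NR2E3 two-hybrid luciferase reporter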
[2] = biological target: Adenosylmethionine-8-amino-7-oxononanoate aminotransferase (Mycobacterium tuberculosis, UniProt P9WQ81); assay: Mycobacterium tuberculosis BioA enzyme inhibitor Measured in Biochemical System Using Plate Reader - 2163-02_Inhibitor_Dose_CherryPick_Activity.; type: functional, Mycobacterium tuberculosis UT205
[3] = loss of viability in HepG2 cells – cell-based, CellTiter-Glo, cherry-picked, cytotoxicity control for Shn3 inhibitor project, dose response (AID 624134); type: functional
INS1 = assay: INS-1E survival protection against cytokine death – cell-based, luminescence, retest, dose response (AID 449756); type: functional; settings: Rattus norvegicus;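 note: cell death triggered by IL-1 beta plus TNF-alpha plus IFN-gamma mixture; protective hits raise ATP signal compared with cytokine alone wells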
[4] = non-specific 3'UTR reporter inhibition in Clone20-Shn3RL – cell-based, Renilla luciferase, cherry-picked, counter-screen for Shn3 inhibitor project, dose response (AID 624133); type: functional
[5] = reduction of Shn3 3'UTR-driven luciferase in osteoblasts – cell-based, Clone20 osteoblasts, firefly luciferase, cherry-picked, dose response (AID 624132); type: functional;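 note: firefly luciferase luminescence from reporter carrying the Shn3 3'UTR in osteoblasts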
Protein Wnt-3a = Protein Wnt-3a (Mus musculus, UniProt P27467); assay: antagonism of Wnt3a pathway luciferase reporter – Wnt-LIGHT cells, luminescence, selectivity assay for Gli-SUFU antagonist project, dose response (AID 651570); type: functional; settings: read-out: IC50_Mean;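 note: Wnt-LIGHT reporter cells stimulated with conditioned medium from Wnt3a-producing cells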
HEK293 = assay: EBV LMP1 TES2 canonical NF-kB signalling blockers – cell-based, HEK293, luciferase, cherry-pick, dose response (AID 588343); type: functional; settings: Homo sapiens
[6] = toxicity toward HepG2 liver cells – cell-based, plate reader, cherry-pick, antagonist series, cytotoxicity control, dose response (AID 743416); type: functional
[7] = biological target: T1, Sentrin-specific protease 7 (Homo sapiens, UniProt Q9BQF6); type: functional;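 note: Luminescence-based dose-response confirmation of ultra-high-throughput screening hits, measuring inhibition of SENP7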
T1 sequence (Q9BQF6 whole entry): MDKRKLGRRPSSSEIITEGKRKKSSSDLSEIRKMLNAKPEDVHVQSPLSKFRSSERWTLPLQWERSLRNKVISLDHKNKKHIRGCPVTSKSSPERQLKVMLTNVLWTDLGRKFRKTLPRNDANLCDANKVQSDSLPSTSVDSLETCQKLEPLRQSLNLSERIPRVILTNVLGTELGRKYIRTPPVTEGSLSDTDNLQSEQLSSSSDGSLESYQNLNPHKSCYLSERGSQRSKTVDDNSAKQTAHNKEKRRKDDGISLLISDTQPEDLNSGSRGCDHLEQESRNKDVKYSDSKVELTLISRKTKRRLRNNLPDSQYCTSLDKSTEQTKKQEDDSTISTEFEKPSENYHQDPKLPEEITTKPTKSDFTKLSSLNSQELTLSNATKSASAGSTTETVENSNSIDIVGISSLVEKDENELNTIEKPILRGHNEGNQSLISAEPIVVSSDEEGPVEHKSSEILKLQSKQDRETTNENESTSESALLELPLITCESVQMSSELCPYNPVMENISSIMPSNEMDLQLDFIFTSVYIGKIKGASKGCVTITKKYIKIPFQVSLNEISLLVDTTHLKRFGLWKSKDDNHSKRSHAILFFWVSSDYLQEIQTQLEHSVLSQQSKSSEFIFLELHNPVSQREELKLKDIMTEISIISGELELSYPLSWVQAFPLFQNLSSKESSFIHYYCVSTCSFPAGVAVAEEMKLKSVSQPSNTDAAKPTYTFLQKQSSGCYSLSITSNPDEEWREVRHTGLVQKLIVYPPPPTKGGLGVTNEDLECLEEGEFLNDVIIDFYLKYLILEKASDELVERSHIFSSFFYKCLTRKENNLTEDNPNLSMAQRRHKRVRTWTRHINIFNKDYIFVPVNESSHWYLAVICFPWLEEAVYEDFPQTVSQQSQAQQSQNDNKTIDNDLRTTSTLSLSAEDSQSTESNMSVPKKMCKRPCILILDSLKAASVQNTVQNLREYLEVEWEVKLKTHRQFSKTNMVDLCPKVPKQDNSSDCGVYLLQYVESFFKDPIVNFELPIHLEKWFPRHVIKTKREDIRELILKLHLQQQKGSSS

[8] = alpha-synuclein stem-loop luciferase translation blockers – H4 neuroglioma cells, luminescence, confirmation (AID 1988); type: functional, cell-based
[9] = biological target: T2, Sentrin-specific protease 8 (Homo sapiens, UniProt Q96LD8); type: functional;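 note: luminescence read-out of SENP8 inhibition, dose-response confirmation following an ultra-high-throughput screen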
T2 sequence (Q96LD8 whole entry): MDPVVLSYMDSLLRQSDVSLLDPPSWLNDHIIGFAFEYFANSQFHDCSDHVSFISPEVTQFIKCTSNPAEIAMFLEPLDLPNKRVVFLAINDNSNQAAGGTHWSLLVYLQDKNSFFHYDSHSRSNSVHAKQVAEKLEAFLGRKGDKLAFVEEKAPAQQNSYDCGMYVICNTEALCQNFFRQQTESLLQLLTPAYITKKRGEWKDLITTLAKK

[10] = biological target: T3, Sentrin-specific protease 6 (Homo sapiens, UniProt Q9GZR1); type: functional;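 note: Luminescence-based dose-response confirmatory assay of SENP6 inhibition, following up an ultra-high-throughput screen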
T3 sequence (Q9GZR1 whole entry): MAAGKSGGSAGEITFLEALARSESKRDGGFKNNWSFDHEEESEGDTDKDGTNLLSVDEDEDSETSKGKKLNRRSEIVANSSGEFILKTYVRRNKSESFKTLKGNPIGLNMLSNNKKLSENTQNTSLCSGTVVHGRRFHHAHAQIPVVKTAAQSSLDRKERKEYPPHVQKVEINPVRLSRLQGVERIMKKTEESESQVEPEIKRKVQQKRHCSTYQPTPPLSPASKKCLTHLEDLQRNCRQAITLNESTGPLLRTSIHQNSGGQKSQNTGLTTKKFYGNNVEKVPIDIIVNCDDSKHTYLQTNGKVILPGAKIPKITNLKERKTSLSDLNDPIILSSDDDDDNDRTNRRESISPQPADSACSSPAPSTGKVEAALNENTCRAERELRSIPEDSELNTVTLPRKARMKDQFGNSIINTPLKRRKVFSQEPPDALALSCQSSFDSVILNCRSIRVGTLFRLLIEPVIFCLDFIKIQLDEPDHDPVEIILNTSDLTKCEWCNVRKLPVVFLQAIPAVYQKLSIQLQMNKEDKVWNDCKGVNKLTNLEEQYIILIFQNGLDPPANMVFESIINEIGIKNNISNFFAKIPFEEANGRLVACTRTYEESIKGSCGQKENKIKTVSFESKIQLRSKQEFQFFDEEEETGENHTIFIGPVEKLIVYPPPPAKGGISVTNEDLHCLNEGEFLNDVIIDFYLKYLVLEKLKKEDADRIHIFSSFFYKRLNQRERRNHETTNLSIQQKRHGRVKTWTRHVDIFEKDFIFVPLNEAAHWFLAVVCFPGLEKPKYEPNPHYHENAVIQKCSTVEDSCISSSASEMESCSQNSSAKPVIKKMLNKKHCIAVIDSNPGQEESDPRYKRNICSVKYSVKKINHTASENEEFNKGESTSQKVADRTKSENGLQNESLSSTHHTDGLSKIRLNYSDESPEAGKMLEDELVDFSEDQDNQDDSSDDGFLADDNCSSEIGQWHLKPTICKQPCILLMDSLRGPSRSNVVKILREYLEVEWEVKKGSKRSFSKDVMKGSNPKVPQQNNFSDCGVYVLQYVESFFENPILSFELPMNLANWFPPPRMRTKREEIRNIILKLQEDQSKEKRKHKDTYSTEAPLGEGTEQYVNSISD

[11] = blockade of melanocortin 4 receptor signaling – cell-based, plate reader, cherry pick, counter-screen for LGR2 antagonist project, dose response (AID 743444); type: functional;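 note: transfected HEK 293 cells stimulated with alpha-MSH peptide; potency of inhibitors of the alpha-MSH evoked signal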
[12] = Luminescence Cell-Based Dose Response HTS to Identify Inhibitors of 5'UTR Stem-Loop Driven Prion Protein mRNA Translation in H4 Neuroglioblastoma Cells. [Related pubchem assays: 1827 (Project Summary), 1813 (Primary HTS)]; type: functional
Caspase-3 = biological target: T4, Caspase-3 (Homo sapiens, UniProt P42574); type: functional;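 note: Dose-response selectivity test against caspase-3 for candidate inhibitors of sentrin-specific proteases (SENPs)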
T4 sequence (P42574 whole entry): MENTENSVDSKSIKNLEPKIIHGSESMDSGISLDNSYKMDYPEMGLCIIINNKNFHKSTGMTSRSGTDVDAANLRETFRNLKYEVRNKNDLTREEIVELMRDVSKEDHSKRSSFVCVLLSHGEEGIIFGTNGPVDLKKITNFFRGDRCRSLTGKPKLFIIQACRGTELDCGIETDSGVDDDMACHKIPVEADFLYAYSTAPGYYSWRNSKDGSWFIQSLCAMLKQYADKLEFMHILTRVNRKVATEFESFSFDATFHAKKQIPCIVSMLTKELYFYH

[13] = viability loss in HEK293 cells – cell-based, plate reader, cherry-picked samples, cytotoxicity control, dose response (AID 743446); type: functional
[14] = A549 cell cytotoxicity, dose response, cytotoxicity control, plate reader, cherry-pick, antagonist series (AID 743412); type: functional, cell-based
[15] = blockers of bursicon-stimulated LGR2 cAMP reporter – cell-based, HEK293, CRE-luciferase reporter, cherry pick, set 2, dose response (AID 743343); type: functional;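 note: transfected cells were stimulated with diluted bursicon conditioned medium after compound addition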
BJ [16] = assay: BJ-TERT-LT-ST fibroblast viability loss – cell-based, RAS-independent, luminescence, dose response (AID 1935); type: functional; settings: Homo sapiens;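 note: BJ fibroblasts immortalized with TERT plus LT and ST oncogenes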
[17] = biological target: T5, Heat shock factor protein 1 (Mus musculus, UniProt P38532); assay: enhancement of HSF1-driven luciferase signal – cell-based, NIH3T3, luminescence, dose retest, confirmation (AID 435004); type: functional;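 note: stress induced by proteasome inhibitor MG132 added 30 min after compound; luciferase reporter driven by HSF1 response element in NIH3T3 cells; actives raise luminescence as potentiators of the MG132 stress response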
T5 sequence (P38532 whole entry): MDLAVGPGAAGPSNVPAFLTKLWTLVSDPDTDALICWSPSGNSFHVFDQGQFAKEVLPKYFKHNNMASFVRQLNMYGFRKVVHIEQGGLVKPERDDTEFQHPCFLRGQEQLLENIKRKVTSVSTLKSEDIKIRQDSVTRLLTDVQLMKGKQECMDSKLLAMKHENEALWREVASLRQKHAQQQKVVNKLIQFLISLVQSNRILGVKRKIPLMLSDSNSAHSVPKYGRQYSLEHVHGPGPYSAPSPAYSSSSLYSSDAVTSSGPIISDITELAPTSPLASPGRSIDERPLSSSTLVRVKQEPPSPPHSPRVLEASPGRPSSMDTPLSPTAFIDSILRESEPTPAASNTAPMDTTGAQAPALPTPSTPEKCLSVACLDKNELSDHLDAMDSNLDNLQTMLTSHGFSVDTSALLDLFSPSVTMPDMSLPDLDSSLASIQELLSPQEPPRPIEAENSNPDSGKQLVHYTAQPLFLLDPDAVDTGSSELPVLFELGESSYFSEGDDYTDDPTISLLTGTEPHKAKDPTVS

BJ [18] = assay: BJ-TERT fibroblast viability loss – cell-based, RAS-independent, luminescence, dose response (AID 1933); type: functional; settings: Homo sapiens
BJ [19] = assay: cells; type: functional, cell-based; settings: Homo sapiens
[20] = DRD fibroblast viability loss – cell-based, non-viral oncogenic, luminescence, dose response (AID 1934); type: functional; settings: Homo sapiens
[21] = biological target: T6, Microphthalmia-associated transcription factor (Homo sapiens, UniProt O75030); assay: reducers of TRPM1 reporter luminescence, concentration series – cell-based, SK-MEL-5, cherry-picked, set 3, MITF inhibitor project, dose response (AID 493073); type: functional;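 note: SK-MEL-5 melanoma cells with luciferase driven by the MITF target TRPM1 promoter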
T6 sequence (O75030 whole entry): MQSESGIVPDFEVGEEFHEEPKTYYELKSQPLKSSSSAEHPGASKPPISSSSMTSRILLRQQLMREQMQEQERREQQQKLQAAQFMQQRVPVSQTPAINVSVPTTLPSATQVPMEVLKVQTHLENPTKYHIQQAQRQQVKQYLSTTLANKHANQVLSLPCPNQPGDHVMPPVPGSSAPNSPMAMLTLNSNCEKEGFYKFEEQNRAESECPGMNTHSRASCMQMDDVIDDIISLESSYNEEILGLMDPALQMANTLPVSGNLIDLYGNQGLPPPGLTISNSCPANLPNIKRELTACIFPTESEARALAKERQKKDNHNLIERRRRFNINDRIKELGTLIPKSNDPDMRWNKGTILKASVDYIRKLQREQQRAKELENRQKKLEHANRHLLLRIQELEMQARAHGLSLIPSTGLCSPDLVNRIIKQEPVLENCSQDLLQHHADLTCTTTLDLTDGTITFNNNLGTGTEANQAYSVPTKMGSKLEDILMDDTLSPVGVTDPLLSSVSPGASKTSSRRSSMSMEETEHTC

[22] = Fluorescence-based cell-based high throughput dose response assay for inhibitors of the interaction of nucleotide-binding oligomerization domain containing 2 (NOD2) and the receptor-interacting serine-threonine kinase 2 (RIPK2).; type: functional; settings: Homo sapiens
[23] = biological target: Heat shock protein HSP 90-alpha (Homo sapiens, UniProt P07900); type: functional, organism-based

Protein Wnt-3a, sequence (P27467 whole entry): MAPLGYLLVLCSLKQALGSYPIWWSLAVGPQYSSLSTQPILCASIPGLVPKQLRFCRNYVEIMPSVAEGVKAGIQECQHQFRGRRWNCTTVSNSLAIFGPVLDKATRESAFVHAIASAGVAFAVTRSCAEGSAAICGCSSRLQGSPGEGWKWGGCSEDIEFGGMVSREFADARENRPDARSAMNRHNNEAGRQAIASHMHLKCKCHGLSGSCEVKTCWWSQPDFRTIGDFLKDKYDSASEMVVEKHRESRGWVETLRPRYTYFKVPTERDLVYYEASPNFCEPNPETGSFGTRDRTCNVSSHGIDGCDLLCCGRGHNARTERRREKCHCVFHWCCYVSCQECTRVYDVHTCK
Photoreceptor-specific nuclear receptor, sequence (Q9Y5X4 whole entry, the tested form may be a part): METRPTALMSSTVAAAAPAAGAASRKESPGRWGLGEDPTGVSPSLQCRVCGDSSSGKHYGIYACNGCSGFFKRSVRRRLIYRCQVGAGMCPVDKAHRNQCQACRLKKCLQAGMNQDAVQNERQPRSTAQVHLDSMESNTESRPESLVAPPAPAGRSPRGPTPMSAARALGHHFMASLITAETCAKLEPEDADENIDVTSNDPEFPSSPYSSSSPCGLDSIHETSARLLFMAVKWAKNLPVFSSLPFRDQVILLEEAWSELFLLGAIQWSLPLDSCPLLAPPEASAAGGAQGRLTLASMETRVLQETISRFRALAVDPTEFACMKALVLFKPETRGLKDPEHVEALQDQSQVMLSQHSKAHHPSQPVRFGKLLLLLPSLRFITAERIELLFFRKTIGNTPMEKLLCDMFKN
Adenosylmethionine-8-amino-7-oxononanoate aminotransferase, sequence (P9WQ81 whole entry): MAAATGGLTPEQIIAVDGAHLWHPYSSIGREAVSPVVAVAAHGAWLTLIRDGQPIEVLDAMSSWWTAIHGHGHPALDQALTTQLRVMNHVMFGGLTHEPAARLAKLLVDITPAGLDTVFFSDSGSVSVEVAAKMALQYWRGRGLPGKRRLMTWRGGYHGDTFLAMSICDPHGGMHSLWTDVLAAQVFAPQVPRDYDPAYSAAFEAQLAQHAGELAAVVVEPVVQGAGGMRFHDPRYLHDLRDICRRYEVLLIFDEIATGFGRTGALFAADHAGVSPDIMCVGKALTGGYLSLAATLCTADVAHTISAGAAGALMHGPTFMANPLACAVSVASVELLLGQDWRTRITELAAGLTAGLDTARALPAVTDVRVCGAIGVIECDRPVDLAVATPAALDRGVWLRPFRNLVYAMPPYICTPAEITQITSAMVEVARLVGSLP

## COc1ccc(C)cc1NC(=O)c1nnn(Cc2cccc(C(F)(F)F)c2)c1N
[1]
  IC50: 39.8 µM (inactive)

## Cc1ccc(-c2nn(CCC(=O)Nc3cccnc3)c(=O)c3ccccc23)cc1
[2]
  AC50: 0.148 µM (active)

## CC(CC(=O)N1CCN(c2cccc(Cl)c2)CC1)S(=O)(=O)c1ccc2c(c1)NC(=O)CO2 (configuration not stated)
[3]
  AC50: 34.7 µM (active)
INS1
  AC50: 5.65 µM (active)
[4]
  AC50: 5.37 µM (active)
[5]
  AC50: 3.99 µM (active)
Protein Wnt-3a
  IC50: 15.1 µM (active)

## Cc1ccc(/C=C/c2nc(O)c3ccccc3n2)cc1
HEK293
  AC50: 1.88 µM (active)
[6]
  AC50: > 52 µM (inactive)
[7]
  IC50: 0.788 µM (active)
[8]
  EC50: 4.45 µM (inconclusive)
[9]
  IC50: 1.5 µM (active)
[10]
  IC50: 0.961 µM (active)
[11]
  AC50: 2.45 µM (active)
[12]
  EC50: 14.8 µM (active)
Caspase-3
  IC50: 0.999 µM (active)
[13]
  AC50: > 52 µM (inactive)
[14]
  AC50: > 52 µM (inactive)
[15]
  AC50: 2.73 µM (active)

## COc1cc2c(cc1/C=C/[N+](=O)[O-])OCO2
BJ [16]
  EC50: 8.52 µM (inconclusive)
[17]
  EC50: 8.55 µM (active)
BJ [18]
  EC50: 8.89 µM (inconclusive)
BJ [19]
  EC50: 11.5 µM (inconclusive)
[20]
  EC50: 6.07 µM (active)
[21]
  AC50: 8.98 µM (active)
[22]
  IC50: 3.19 µM (active)
[23]
  AC50: 4.25 µM (active)

Source: ChEMBL document CHEMBL1201862, “PubChem BioAssay data set” (2004)
